# US20220160716A1 (SORBONNE UNIVERSITE, priority 2019, published 2022)
# Assays:
# [1] = molecular target: T1, CDK9/T (Homo sapiens, UniProt P50750); assay: Protein kinase catalytic activity assay, CDK9/cyclin T; type: biochemical; conditions: activator cyclin T; read-out: IC50 of protein kinases, CDK9/T
# T1 construct: made in house
# [2] = molecular target: T2, CLK1 (Homo sapiens, UniProt P49759); assay: Protein kinase catalytic activity assay, CLK1; type: biochemical; conditions: read-out: IC50 of protein kinases, CLK1
# T2 construct: made in house
# [3] = molecular target: CK1; assay: Protein kinase catalytic activity assay, CK1; type: biochemical; conditions: read-out: IC50 of protein kinases, CK1
# [4] = molecular target: T3, DYRK1A (Homo sapiens, UniProt Q13627); assay: Protein kinase catalytic activity assay, DYRK1A; type: biochemical; conditions: read-out: IC50 of protein kinases, DYRK1A
# T3 construct: made in house
# [5] = molecular target: GSK3 (Homo sapiens, UniProt P49841); assay: Protein kinase catalytic activity assay, GSK3; type: biochemical; conditions: read-out: IC50 of protein kinases, GSK3
# [6] = molecular target: T4, CDK2/A (Homo sapiens, UniProt P24941); assay: Protein kinase catalytic activity assay, CDK2/cyclin A; type: biochemical; conditions: activator cyclin A; read-out: IC50 of protein kinases, CDK2/A
# T4 construct: made in house
# [7] = molecular target: T5, CDK5/p25 (Homo sapiens, UniProt Q00535); type: biochemical; conditions: activator p25; read-out: IC50 of protein kinases, CDK5/p25
# T5 construct: made in house
# [8] = molecular target: ABCB4-I541F (Homo sapiens, UniProt P21439, I541F); assay: Maturation of ABCB4-I541F by immunoblot in HEK cells; type: cell-based; set-up: The subcloning of wild type (WT) ABCB4, isoform A (NM_000443.3), into pcDNA3 vector has been described; expressed in transfected cells; host or cells: HEK-293 (immunoblot, PC secretion); conditions: HEK cells, 100 μM, 16 hours, immunoblot
# Experimental: (§1) Cyclosporin A (CsA) was from Santa Cruz Biotechnologies (Dallas, Tex.). […] Each compound was solubilized in dimethylsulfoxide (DMSO) as 1000× concentrated stock solutions in order to treat cells with 5 μM to 100 μM final concentrations, using DMSO as control vehicle at the same dilution (0.1% DMSO for all conditions). The cells were treated 24 hours post-transfection with these drugs during 16 hours, except for the viability assays for which cells were treated during three days. After drug treatment, cells were used for immunoanalyses, cell viability assays or PC secretion assays.
# Western blots and indirect immunofluorescence were performed as previously described (2, 12). […] Signals were detected with ECL prime western blotting detection reagent (GE Healthcare, Velizy-Villacoublay, France) and quantified in the linear range of detection using ImageJ 1.50i software (U.S. National Institutes of Health, Bethesda, Md.).
# [9] = test system: HEK cells; assay: Cell viability MTT assay in HEK cells; conditions: three days
# Experimental: as §1
# Cell viability was assessed by the conversion of MTT (3-[4,5-dimethylthiazol-2-yl]-2,5 diphenyl tetrazolium bromide) into formazan crystals by living cells, as described (14). […] These conditions were optimized in order to maintain the absorbance at 540 nm of the blanks below 0.1 OD unit (negative controls) and the absorbance at 540 nm for untreated cells between 1.0 and 1.3 OD units (positive controls). Then culture media were gently washed out, cells were lysed in 100 μL of pure DMSO and absorbance at 540 nm was measured using a multiplate cytofluorimeter SpectraFluor from Tecan (Männedorf, Switzerland). Cell viability was calculated for each triplicate after background subtraction and expressed as percentage of the mean for cells treated with vehicle only.
# T5 sequence (Q00535 whole entry, species assumed): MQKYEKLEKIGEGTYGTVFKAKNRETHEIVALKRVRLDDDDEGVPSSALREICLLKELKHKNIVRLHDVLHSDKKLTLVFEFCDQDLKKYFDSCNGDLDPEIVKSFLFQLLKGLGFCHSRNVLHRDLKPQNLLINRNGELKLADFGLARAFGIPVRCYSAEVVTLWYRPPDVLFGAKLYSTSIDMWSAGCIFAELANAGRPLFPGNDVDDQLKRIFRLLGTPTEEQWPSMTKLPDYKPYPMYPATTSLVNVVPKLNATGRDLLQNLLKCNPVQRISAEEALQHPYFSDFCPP
# T5 sequence (Q15078 99-307 partner limits assumed, species assumed): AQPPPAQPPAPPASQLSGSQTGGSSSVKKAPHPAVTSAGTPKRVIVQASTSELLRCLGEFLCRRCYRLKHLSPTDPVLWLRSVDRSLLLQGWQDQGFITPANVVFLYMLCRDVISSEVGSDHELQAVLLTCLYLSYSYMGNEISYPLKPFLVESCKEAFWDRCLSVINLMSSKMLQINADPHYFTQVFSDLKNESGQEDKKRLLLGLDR
# Sequence of ABCB4-I541F (P21439 1-1279 isoform P21439-2 I541F): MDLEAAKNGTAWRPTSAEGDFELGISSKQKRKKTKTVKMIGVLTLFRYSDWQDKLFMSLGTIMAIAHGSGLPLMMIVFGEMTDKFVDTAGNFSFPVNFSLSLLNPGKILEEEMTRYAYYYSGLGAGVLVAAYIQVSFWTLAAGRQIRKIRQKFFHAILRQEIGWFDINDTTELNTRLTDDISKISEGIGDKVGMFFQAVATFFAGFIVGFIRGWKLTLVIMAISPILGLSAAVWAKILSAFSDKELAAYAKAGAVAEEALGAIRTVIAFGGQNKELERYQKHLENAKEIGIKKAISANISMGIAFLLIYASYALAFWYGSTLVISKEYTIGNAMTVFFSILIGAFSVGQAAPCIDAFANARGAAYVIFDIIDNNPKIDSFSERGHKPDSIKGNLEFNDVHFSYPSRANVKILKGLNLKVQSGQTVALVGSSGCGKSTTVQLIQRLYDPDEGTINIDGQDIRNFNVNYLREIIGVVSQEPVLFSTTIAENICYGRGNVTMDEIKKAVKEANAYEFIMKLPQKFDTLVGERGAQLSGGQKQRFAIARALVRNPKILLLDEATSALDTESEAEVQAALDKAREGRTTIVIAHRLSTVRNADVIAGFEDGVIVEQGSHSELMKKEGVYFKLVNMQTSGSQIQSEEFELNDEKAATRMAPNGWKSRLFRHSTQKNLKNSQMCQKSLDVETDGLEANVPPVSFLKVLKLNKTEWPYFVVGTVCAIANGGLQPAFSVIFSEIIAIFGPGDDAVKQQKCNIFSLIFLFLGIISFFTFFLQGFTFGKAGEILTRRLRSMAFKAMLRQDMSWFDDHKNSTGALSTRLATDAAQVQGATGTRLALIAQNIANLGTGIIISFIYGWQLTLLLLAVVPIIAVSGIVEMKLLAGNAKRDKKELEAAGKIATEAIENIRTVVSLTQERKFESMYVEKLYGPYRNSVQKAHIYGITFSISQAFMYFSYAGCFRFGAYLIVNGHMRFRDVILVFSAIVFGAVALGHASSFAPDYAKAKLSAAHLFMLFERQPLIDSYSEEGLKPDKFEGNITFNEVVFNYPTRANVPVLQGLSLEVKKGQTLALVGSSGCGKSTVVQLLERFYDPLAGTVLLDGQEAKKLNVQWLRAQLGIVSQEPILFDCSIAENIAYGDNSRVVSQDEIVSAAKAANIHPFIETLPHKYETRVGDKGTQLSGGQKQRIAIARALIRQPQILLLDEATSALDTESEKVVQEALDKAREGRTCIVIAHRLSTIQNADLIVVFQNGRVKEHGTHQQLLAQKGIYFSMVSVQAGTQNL
# Sequence of GSK3 (P49841 whole entry): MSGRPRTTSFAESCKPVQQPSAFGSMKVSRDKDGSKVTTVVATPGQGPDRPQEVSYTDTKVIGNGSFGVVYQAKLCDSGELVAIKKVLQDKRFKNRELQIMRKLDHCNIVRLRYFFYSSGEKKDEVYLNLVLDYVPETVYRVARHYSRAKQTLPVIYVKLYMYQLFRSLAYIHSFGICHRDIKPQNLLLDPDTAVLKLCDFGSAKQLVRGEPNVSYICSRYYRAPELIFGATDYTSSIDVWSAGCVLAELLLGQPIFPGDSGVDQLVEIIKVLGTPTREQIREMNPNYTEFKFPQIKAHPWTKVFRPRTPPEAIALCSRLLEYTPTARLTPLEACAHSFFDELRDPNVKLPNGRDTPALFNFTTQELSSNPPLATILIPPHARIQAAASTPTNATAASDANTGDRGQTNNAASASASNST
# T1 sequence (P50750 whole entry, species assumed): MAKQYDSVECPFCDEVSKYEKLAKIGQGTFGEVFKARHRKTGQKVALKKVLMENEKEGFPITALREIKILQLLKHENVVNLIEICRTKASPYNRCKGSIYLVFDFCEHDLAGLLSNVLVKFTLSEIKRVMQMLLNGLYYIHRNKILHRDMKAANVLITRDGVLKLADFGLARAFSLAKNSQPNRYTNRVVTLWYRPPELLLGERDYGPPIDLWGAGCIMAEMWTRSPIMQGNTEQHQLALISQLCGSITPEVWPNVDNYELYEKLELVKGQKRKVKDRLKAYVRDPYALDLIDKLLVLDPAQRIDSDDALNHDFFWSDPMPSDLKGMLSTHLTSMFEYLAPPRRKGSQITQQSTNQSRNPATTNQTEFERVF
# T1 sequence (O60563 whole entry partner, species assumed): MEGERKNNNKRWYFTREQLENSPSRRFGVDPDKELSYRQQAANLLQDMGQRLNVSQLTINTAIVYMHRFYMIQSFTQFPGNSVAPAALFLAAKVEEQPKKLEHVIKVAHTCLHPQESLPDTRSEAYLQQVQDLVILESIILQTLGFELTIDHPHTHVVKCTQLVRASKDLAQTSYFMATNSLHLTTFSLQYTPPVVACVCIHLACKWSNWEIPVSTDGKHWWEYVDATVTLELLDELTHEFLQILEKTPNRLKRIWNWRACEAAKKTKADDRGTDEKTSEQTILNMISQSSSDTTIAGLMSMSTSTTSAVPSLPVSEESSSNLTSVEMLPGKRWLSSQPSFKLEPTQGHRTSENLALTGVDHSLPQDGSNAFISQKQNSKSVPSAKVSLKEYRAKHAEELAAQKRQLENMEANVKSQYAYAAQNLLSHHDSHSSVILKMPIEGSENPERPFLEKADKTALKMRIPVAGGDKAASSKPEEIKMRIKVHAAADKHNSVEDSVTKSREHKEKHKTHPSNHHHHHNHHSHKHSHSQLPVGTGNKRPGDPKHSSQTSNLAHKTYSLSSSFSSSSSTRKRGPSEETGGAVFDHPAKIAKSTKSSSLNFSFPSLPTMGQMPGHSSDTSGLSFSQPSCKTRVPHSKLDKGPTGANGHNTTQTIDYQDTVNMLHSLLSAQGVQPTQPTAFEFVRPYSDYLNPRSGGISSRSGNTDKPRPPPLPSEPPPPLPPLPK
# T2 sequence (P49759 whole entry): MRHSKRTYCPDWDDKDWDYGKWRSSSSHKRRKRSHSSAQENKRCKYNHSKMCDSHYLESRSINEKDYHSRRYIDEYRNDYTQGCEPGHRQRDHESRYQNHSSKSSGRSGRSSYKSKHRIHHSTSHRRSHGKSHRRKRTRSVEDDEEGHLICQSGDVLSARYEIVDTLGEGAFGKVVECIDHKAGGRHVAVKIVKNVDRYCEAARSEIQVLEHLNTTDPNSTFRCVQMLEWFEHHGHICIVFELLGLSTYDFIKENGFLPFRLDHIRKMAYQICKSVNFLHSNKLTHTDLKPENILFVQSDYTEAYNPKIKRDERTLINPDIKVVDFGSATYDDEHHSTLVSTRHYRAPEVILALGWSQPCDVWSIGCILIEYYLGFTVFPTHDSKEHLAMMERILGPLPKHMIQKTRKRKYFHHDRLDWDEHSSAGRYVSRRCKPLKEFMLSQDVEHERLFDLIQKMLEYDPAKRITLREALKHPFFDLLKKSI
Structure (SMILES),IC50 [1],IC50 [2],IC50 [3],IC50 [4],IC50 [5],IC50 [6],IC50 [7],maturation (mature form) of ABCB4-I541F [8],"cell viability ([9]; 25 μM, % of vehicle-treated cells)",cytotoxicity ([9]; increasing concentrations)
"CC[C@@H](Nc1nc(NCc2ccccc2)c2ncn(C(C)C)c2n1)C(=O)O [M3, reference compound]",> 33 µM,> 33 µM,> 33 µM,19 µM,> 10 µM,–,–,–,–,–
CC(C)n1cnc2c(NCc3ccccc3)nc(N[C@@H](CO)C(=O)O)nc21 [MRT2-164],17 µM,> 33 µM,28 µM,> 10 µM,> 10 µM,–,–,–,–,–
CC[C@@H](Nc1nc(NCc2cccc(C(F)(F)F)c2)c2ncn(C3CCCC3)c2n1)C(=O)O [MRT2-239],20 µM,9 µM,4 µM,21 µM,> 10 µM,8 µM,11 µM,significantly increase the expression of a mature form of ABCB4-I541F,–,–
CC[C@@H](Nc1nc(NCc2ccc(F)c(F)c2)c2ncn(C3CCCC3)c2n1)C(=O)O [MRT2-241],8 µM,13 µM,11 µM,20 µM,> 10 µM,5.1 µM,17 µM,significantly increase the expression of a mature form of ABCB4-I541F,–,–
CC[C@@H](Nc1nc(NCc2ccccc2)c2ncn(C3CCCC3)c2n1)C(=O)O [MRT2-245],28 µM,13 µM,17 µM,21 µM,> 10 µM,6.3 µM,15 µM,significantly increase the expression of a mature form of ABCB4-I541F,–,–
CC[C@@H](Nc1nc(NCc2cccc(C(F)(F)F)c2)c2ncn(C(C)C)c2n1)C(=O)O [MRT2-249],> 33 µM,23 µM,5 µM,9 µM,> 10 µM,9 µM,27 µM,significantly increase the expression of a mature form of ABCB4-I541F,–,–
"CC[C@H](CO)Nc1nc(NCc2ccccc2)c2ncn(C(C)C)c2n1 [Roscovitine, (R)-roscovitine]",–,–,–,–,–,–,–,–,less than 60%,important dose-dependent cytotoxicity
